These are literature values, as cited in PMC10307885, “A Phase 1/2 trial of SRA737 (a Chk1 inhibitor) administered orally in patients with advanced cancer” (British Journal of Cancer, 2023).

In data set [1] the test system is patients. The following applies: cited from earlier work.
Data set [2] has as its system patients. The following applies: cited from earlier work. The source holds these as a separate data set.
[3] abbreviates: in combination with standard dose gemcitabine.

Turning to `NC(=O)Nc1cc(-c2cccc(F)c2)sc1C(=O)N[C@H]1CCCNC1` [AZD7762], in the data set with patients [1] (intravenously administered), the “toxicity that halted development” value was “cardiac toxicity including a drop in ejection fraction”.
For `N[C@@H]1CCCN(c2c(Br)cnc3[nH]cc(NC(=O)C4CC4)c23)C1` [GDC-0575], in the data set with patients [2] (used as a single agent), the “partial or complete responses” value is given as “did not report partial or complete responses”. Moreover, in the data set with patients [1] (setting [3]), the “Treatment-related neutropenia of NCI CTCAE Grade 3 or higher” value was 60 % of patients, the “treatment-related GI adverse events of all grades: diarrhoea” value was 18%, the “treatment-related GI adverse events of all grades: nausea” value is reported as 43% and the “treatment-related GI adverse events of all grades: vomiting” value is on record as 27%.
With `COc1cccc(OCCCN)c1-c1cc(Nc2cnc(C#N)cn2)n[nH]1` [prexasertib], in the data set with patients [2] (intravenous, Phase 1 study), the “efficacy in squamous anal and head and neck cancers” value is on record as “partial responses”. The response rate with patients [2] (patients with high-grade serous ovarian cancers) is on record as 33%. In the data set on patients [1] (intravenous, Phase 2 study), the rate of diarrhoea is 20%, the rate of nausea was 36% and the rate of vomiting is given as 27%.
